# Measurements taken from patent publication US10688122B2, “Thiol and disulfide-containing agents for increasing meibomian gland lipid secretion” (Azura Ophthalmics Ltd., priority 2015, dated 2020).
# Tested on: Sebocytes SEBO662 (3D epithelium)
# Assay: Lipid synthesis/accumulation in 3D model culture of Sebocytes (Oil-red-O staining, lipid droplet surface area)
# Assay type: cell-based, human
# Conditions: for lipid accumulation, % of the control / stimulation of lipid accumulation (in words): 14 days incubation, 3D Sebocytes; for lipid accumulation, % of the control: Oil-red-O lipid droplet surface area; for effect on lipid synthesis in the 3D Sebocytes model (conclusion, in words): overall conclusion, no concentration stated
# Excerpt: Since secretory cells (meibocytes) of meibomian glands, share similarities with that of the secretory cells (sebocytes) of sebaceous glands, as can be validated from their similar structure, similar function and their joint embryologic development (Knop 2011_IOVS) the effect of Thiol containing Lipids on lipid production can be evaluated in a 3D model culture of Sebocytes. See also: Barrault 2012, Immortalized sebocytes can spontaneously differentiate into a sebaceous-like phenotype when cultured as a 3D epithelium, Exp. Derm, 21:299-319
# The effect of different compounds on lipid synthesis was evaluated, in a 3D model culture of Sebocytes. Drug candidates were drugs containing S—H or disulfide: Selenium disulfide (SeS2 dispersed in CarboxymethylCellulose—CMC) as a positive control, Selenocysteine, Captopril, Disulfiram and lipids containing S—H or disulfide: Thioethanol, 12-Mercaptododecanoic acid. Since Sebocytes differentiation is associated with increased lipid synthesis and accumulation, evaluation of proliferation and differentiation was done by quantifying lipid accumulation in the 3D Sebocytes culture (human cell line—SEBO662). Lipid accumulation was evaluated by lipid staining with Oil red staining.
# Sebocytes SEBO662 were cultured into a three dimension (3D) epithelium and differentiated to a sebaceous-like phenotype. The Sebocytes were treated or not (control) with the test compounds and incubated for 14 days. All experiments were performed 3 times. After incubation, tissues were snap-frozen. Formaldehyde-fixed cryo sections were stained using an Oil-red-O solution and counterstained using haematoxylin. For each test condition, the sections were observed using a light microscope equipped with a camera. Five pictures were taken per replicate, making 15 values per treatment condition. The lipid content in each sample was quantified by calculation of the lipid droplet surface area. Quantitative comparison of all data points between lipid's droplet surface area of tested compounds versus control was performed
Structure (SMILES),"lipid accumulation, % of the control (0.1 μM)","lipid accumulation, % of the control (1 μM)","effect on lipid synthesis in the 3D Sebocytes model (conclusion, in words)","lipid accumulation, % of the control (10 μM)","lipid accumulation, % of the control (100 μM)",stimulation of lipid accumulation (in words) (1000 μM),"lipid accumulation, % of the control (0.01 μM)",stimulation of lipid accumulation (in words) (10 μM)
O=C(O)CCCCCCCCCCCS [12-Mercaptododecanoic acid],385%,349%,significant stimulating effect,–,–,–,–,–
C[C@H](CS)C(=O)N1CCC[C@H]1C(=O)O [Captopril],–,240%,significant stimulating effect,173%,–,–,–,–
CCN(CC)C(=S)SSC(=S)N(CC)CC [Disulfiram],–,–,significant stimulating effect,–,199%,no stimulation effect,–,–
S=[Se]=S [Selenium disulfide],348%,–,significant stimulating effect,–,–,–,282%,–
N[C@@H](C[SeH])C(=O)O [Selenocysteine],–,296%,significant stimulating effect,–,–,–,–,no stimulation effect
OCCS [Thioethanol],251%,228%,significant stimulating effect,–,–,–,–,–
